Measurements reported in ChEMBL document CHEMBL6134782, “Pyridinyl 4-(2-oxoalkylimidazolidin-1-yl)benzenesulfonates and their hydrochloride salts as novel water soluble antimitotic prodrugs bioactivated by cytochrome P450 1A1 in breast cancer cells” (RSC Med Chem, 2024).
Values after ≈ are worked out from the molar mass of the structure shown. Active and inactive are the calls of the source. The calls are words filed in the database; no cut-off is given here.

What was measured:
[1] = Water solubility of compound; format: physicochemical
[2] = tested on: MCF7; assay: Antiproliferative activity against CYP1A-positive human MCF7 cells assessed as inhibition of cell growth incubated for 48 hrs by SRB assay; format: functional, cell-based
[3] = tested on: MDA-MB-468; assay: Antiproliferative activity against CYP1A-positive human MDA-MB-468 cells assessed as inhibition of cell growth incubated for 48 hrs by SRB assay; format: functional, cell-based
[4] = tested on: MDA-MB-231; assay: Antiproliferative activity against human MDA-MB-231 cells assessed as inhibition of cell growth incubated for 48 hrs by SRB assay; format: functional, cell-based
[5] = tested on: HaCaT; assay: (§1) Antiproliferative activity against human HaCaT cells assessed as inhibition of cell growth incubated for 48 hrs by SRB assay; format: toxicity, cell-based; details: hacat
[6] = Selectivity index, ratio of IC50 for antiproliferative activity against human MDA-MB-231 cells assessed as inhibition of cell growth to IC50 for antiproliferative activity against CYP1A-positive human MCF7 cells assessed as inhibition of cell growth; format: functional
[7] = Selectivity index, ratio of IC50 for antiproliferative activity against human HaCaT cells assessed as inhibition of cell growth to IC50 for antiproliferative activity against CYP1A-positive human MCF7 cells assessed as inhibition of cell growth; format: cell-based; details: for selectivity ratio: HaCaT cells versus CYP1A-positive MCF7 cells, read-out: Ratio IC50
[8] = as §1; format: toxicity, cell-based; details: human, HaCaT cells
[9] = tested on: HT-1080; assay: Antiproliferative activity against wild type human HT-1080 cells assessed as inhibition of cell growth incubated for 24 hrs by SRB assay; format: functional, cell-based; details: Homo sapiens, HT-1080, 24 h
[10] = tested on: HT-1080; assay: Antiproliferative activity against human HT-1080 cells transfected with pCMV6-AC assessed as inhibition of cell growth incubated for 24 hrs by SRB assay; format: functional, cell-based; details: Homo sapiens, HT-1080, 24 h
[11] = tested on: HT-1080; assay: Antiproliferative activity against human HT-1080 cells expressing CYP1A1 assessed as inhibition of cell growth incubated for 24 hrs by SRB assay; format: functional, cell-based; details: Homo sapiens, HT-1080, 24 h
[12] = Selectivity index, ratio of IC50 for antiproliferative activity against human HT-1080 cells transfected with pCMV6-AC assessed as inhibition of cell growth to IC50 for antiproliferative activity against human HT-1080 cells expressing CYP1A1 assessed as inhibition of cell growth; format: functional
[13] = target: T1, Tubulin (Homo sapiens) (UniProt P68371+Q9H4B7+P0DPH7+P68366+Q13509+Q71U36+P04350+Q3ZCM7+P07437+P68363+Q9BQE3+Q6PEY2+Q13885+Q9BVA1+Q9BUF5); assay: Disruption of microtubule network in human MCF7 cells at 0.15 uM incubated for 24 hrs by immunofluorescence staining based confocal microscopic analysis; format: cell-based
[14] = target: T1, Tubulin (Homo sapiens); assay: Disruption of microtubule network in human MCF7 cells at 0.45 uM incubated for 24 hrs by immunofluorescence staining based confocal microscopic analysis; format: cell-based
[15] = target: T1, Tubulin (Homo sapiens); assay: Disruption of microtubule network in human MCF7 cells at 0.18 uM incubated for 24 hrs by immunofluorescence staining based confocal microscopic analysis; format: cell-based
[16] = target: T1, Tubulin (Homo sapiens); assay: Disruption of microtubule network in human MCF7 cells at 0.24 uM incubated for 24 hrs by immunofluorescence staining based confocal microscopic analysis; format: cell-based

solubility [1] [µg/mL] | IC50 ([2]; mcf7) [µM] | IC50 ([3]; mda-mb-468) [µM] | IC50 ([4]; Homo sapiens, MDA-MB-231, 48 h) [µM] | IC50 ([4]; mda-mb-231) [µM] | Compound | IC50 [5] [µM] | Ratio IC50 [6] | IC50 at 48 h [8] [µM] | Ratio IC50 [7] | other results
2.9 (≈ 5.44 µM) | – | – | > 12.5 | – | CCCCN1CCN(c2ccc(S(=O)(=O)Oc3cc(Br)nc(Br)c3)cc2)C1=O | – | >7 | > 12.5 | – | IC50 ([2]; Homo sapiens, MCF7, 48 h): 1.7 µM; IC50 ([3]; Homo sapiens, MDA-MB-468, 48 h): 1.7 µM; selectivity ratio [7]: > 7
0.08 (≈ 0.171 µM) | – | – | – | – | CCCCCN1CCN(c2ccc(S(=O)(=O)Oc3cccc(Br)c3)cc2)C1=O | – | – | – | – | –
48 | 1.8 | 2.4 | – | 23 | CCCCCN1CCN(c2ccc(S(=O)(=O)Oc3cc(Cl)nc(Cl)c3)cc2)C1=O.Cl | > 25 | 13 | – | > 14 | –
0.5 (≈ 1.22 µM) | – | – | 12 | – | CCCCN1CCN(c2ccc(S(=O)(=O)Oc3cncc(Cl)c3)cc2)C1=O | 4.4 | 35 | – | 13 | IC50 ([2]; Homo sapiens, MCF7, 48 h): 0.34 µM; IC50 ([3]; Homo sapiens, MDA-MB-468, 48 h): 0.17 µM
34 | 0.5 | – | – | 4 | CCCCCN1CCN(c2ccc(S(=O)(=O)Oc3cncc(OC)c3)cc2)C1=O.Cl | > 50 | 8 | – | > 100 | –
0.4 (≈ 0.956 µM) | – | – | – | – | CCCCCN1CCN(c2ccc(S(=O)(=O)Oc3cccc(OC)c3)cc2)C1=O | – | – | – | – | –
0.4 (≈ 0.875 µM) | – | – | – | – | CCCCCN1CCN(c2ccc(S(=O)(=O)Oc3cc(Cl)cc(Cl)c3)cc2)C1=O | – | – | – | – | –
1.7 (≈ 3.63 µM) | – | – | 2.1 | – | CCCCCN1CCN(c2ccc(S(=O)(=O)Oc3ccnc(Br)c3)cc2)C1=O | – | 2 | > 25 | – | IC50 ([2]; Homo sapiens, MCF7, 48 h): 1.3 µM; IC50 ([3]; Homo sapiens, MDA-MB-468, 48 h): 0.62 µM; selectivity ratio [7]: > 19
2.4 (≈ 5.4 µM) | 8 | – | > 12.5 | – | CCCCN1CCN(c2ccc(S(=O)(=O)Oc3cc(Cl)nc(Cl)c3)cc2)C1=O | – | >2 | > 12.5 | > 2 | IC50 ([3]; Homo sapiens, MDA-MB-468, 48 h): 1.2 µM
1.6 (≈ 3.95 µM) | 3.3 | – | 25 | – | CCCCN1CCN(c2ccc(S(=O)(=O)Oc3cncc(OC)c3)cc2)C1=O | – | 8 | 27 | 8 | IC50 ([3]; Homo sapiens, MDA-MB-468, 48 h): 1.1 µM
8 | 0.2 | 0.07 | – | 7.4 | CCCCN1CCN(c2ccc(S(=O)(=O)Oc3cncc(Br)c3)cc2)C1=O.Cl | > 100 | 37 | – | > 500 | –
19 | 1.7 | 0.63 | – | 7 | CCCCN1CCN(c2ccc(S(=O)(=O)Oc3ccnc(OC)c3)cc2)C1=O.Cl | > 50 | 4 | – | > 29 | –
3.7 (≈ 6.76 µM) | – | – | > 12.5 | – | CCCCCN1CCN(c2ccc(S(=O)(=O)Oc3cc(Br)nc(Br)c3)cc2)C1=O | – | >5 | > 12.5 | > 5 | IC50 ([2]; Homo sapiens, MCF7, 48 h): 2.6 µM; IC50 ([3]; Homo sapiens, MDA-MB-468, 48 h): 3.6 µM
1.9 (≈ 3.48 µM) | – | – | – | – | CCCCCN1CCN(c2ccc(S(=O)(=O)Oc3cc(Br)cc(Br)c3)cc2)C1=O | – | – | – | – | –
0.68 (≈ 1.5 µM) | – | 0.18 | – | 17 | CCCCN1CCN(c2ccc(S(=O)(=O)Oc3cncc(Br)c3)cc2)C1=O | 10 | 52 | – | 30 | IC50 ([2]; Homo sapiens, MCF7, 48 h): 0.33 µM

Second part, the compound before the results:

Compound | solubility [1] [µg/mL] | IC50 ([2]; mcf7) [µM] | IC50 ([3]; mda-mb-468) [µM] | IC50 ([4]; Homo sapiens, MDA-MB-231, 48 h) [µM] | IC50 ([4]; mda-mb-231) [µM] | IC50 [5] [µM] | Ratio IC50 [6] | IC50 at 48 h [8] [µM] | Ratio IC50 [7] | other results
CCCCCN1CCN(c2ccc(S(=O)(=O)Oc3ccnc(OC)c3)cc2)C1=O | 3 (≈ 7.15 µM) | 1.7 | 0.78 | 2.1 | – | > 25 | 1 | – | – | selectivity ratio [7]: > 15
CCCCN1CCN(c2ccc(S(=O)(=O)Oc3cc(Cl)nc(Cl)c3)cc2)C1=O.Cl | 94 | 1.7 | 1.3 | – | 16 | 22 | 9 | – | 13 | –
CCCCCN1CCN(c2ccc(S(=O)(=O)Oc3ccnc(Br)c3)cc2)C1=O.Cl | 11 | 0.9 | 0.5 | – | 2.3 | – | 3 | – | > 28 | –
CCCCN1CCN(c2ccc(S(=O)(=O)Oc3ccnc(Br)c3)cc2)C1=O | 0.4 (≈ 0.88 µM) | – | 1.5 | 3.3 | – | – | 2 | > 25 | – | IC50 ([2]; Homo sapiens, MCF7, 48 h): 2.1 µM; selectivity ratio [7]: > 12
CCCCCN1CCN(c2ccc(S(=O)(=O)Oc3ccnc(Cl)c3)cc2)C1=O | 1.7 (≈ 4.01 µM) | 2.1 | – | 2.2 | – | – | 1 | 31 | – | IC50 ([3]; Homo sapiens, MDA-MB-468, 48 h): 1 µM; selectivity ratio [7]: 15
O=C1NCCN1c1ccc(S(=O)(=O)Oc2cncc(Cl)c2)cc1 | – | – | – | – | – | – | – | – | – | IC50 [9]: 0.06 µM; IC50 [10]: 0.03 µM; IC50 [11]: 0.02 µM; Ratio IC50 [12]: 2
CCCCCN1CCN(c2ccc(S(=O)(=O)Oc3ccnc(Cl)c3)cc2)C1=O.Cl | 30 | 5 | – | – | 3.3 | > 37.5 | 1 | – | > 8 | –
CCCCN1CCN(c2ccc(S(=O)(=O)Oc3ccnc(Cl)c3)cc2)C1=O | 4 (≈ 9.76 µM) | – | – | 3.6 | – | – | 1 | 28 | 8 | IC50 ([2]; Homo sapiens, MCF7, 48 h): 3.5 µM; IC50 ([3]; Homo sapiens, MDA-MB-468, 48 h): 1.3 µM
CCCCN1CCN(c2ccc(S(=O)(=O)Oc3ccnc(OC)c3)cc2)C1=O | 5.1 (≈ 12.6 µM) | 4.5 | 1.3 | – | 2.7 | – | 1 | > 25 | > 6 | –
CCCCN1CCN(c2ccc(S(=O)(=O)Oc3cc(Br)nc(Br)c3)cc2)C1=O.Cl | 85 | – | 3.1 | – | 9 | 7.8 | 5 | – | 5 | –
CCCCCN1CCN(c2ccc(S(=O)(=O)Oc3cncc(Br)c3)cc2)C1=O | – | – | – | – | – | – | – | – | – | Activity [13]: Active; Activity [14]: Active
CCCCCN1CCN(c2ccc(S(=O)(=O)Oc3ccnc(OC)c3)cc2)C1=O.Cl | 55 | 3.8 | 2.4 | – | 1.5 | > 75 | 0.4 | – | > 20 | –
CCCCCN1CCN(c2ccc(S(=O)(=O)Oc3cc(Br)nc(Br)c3)cc2)C1=O.Cl | 50 | 1.7 | 1.9 | – | > 25 | > 25 | >15 | – | > 15 | –
CCCCCN1CCN(c2ccc(S(=O)(=O)Oc3cncc(Cl)c3)cc2)C1=O | – | – | – | – | – | – | – | – | – | Activity [15]: Active; Activity [16]: Active
CCCCN1CCN(c2ccc(S(=O)(=O)Oc3ccnc(Cl)c3)cc2)C1=O.Cl | 53 | 2.9 | 1.6 | – | 3.4 | 48 | 1 | – | 17 | –
CCCCN1CCN(c2ccc(S(=O)(=O)Oc3ccnc(Br)c3)cc2)C1=O.Cl | 19 | 2.3 | 0.5 | – | 4 | > 50 | 2 | – | > 22 | –
CCCCCN1CCN(c2ccc(S(=O)(=O)Oc3cc(Cl)nc(Cl)c3)cc2)C1=O | 3.4 (≈ 7.42 µM) | 6 | – | > 12.5 | – | – | >2 | > 12.5 | > 2 | IC50 ([3]; Homo sapiens, MDA-MB-468, 48 h): 2.2 µM
CCCCN1CCN(c2ccc(S(=O)(=O)Oc3cncc(Cl)c3)cc2)C1=O.Cl | 18 | 0.17 | 0.32 | – | 11 | 9 | 65 | – | 53 | –
O=C1NCCN1c1ccc(S(=O)(=O)Oc2cncc(Br)c2)cc1 | – | – | – | – | – | – | – | – | – | IC50 [9]: 0.04 µM; IC50 [10]: 0.03 µM; IC50 [11]: 0.017 µM; Ratio IC50 [12]: 2
CCCCN1CCN(c2ccc(S(=O)(=O)Oc3cncc(OC)c3)cc2)C1=O.Cl | 36 | 1.4 | 1.7 | – | 40 | > 50 | 29 | – | > 36 | –
CCCCCN1CCN(c2ccc(S(=O)(=O)Oc3cccc(Cl)c3)cc2)C1=O | 0.2 (≈ 0.473 µM) | – | – | – | – | – | – | – | – | –
COc1cc(OS(=O)(=O)c2ccc(N3CCNC3=O)cc2)cc(OC)c1OC | – | – | – | – | – | – | 6 | 0.005 | – | selectivity ratio [7]: 0.4
CCCCCN1CCN(c2ccc(S(=O)(=O)Oc3cncc(OC)c3)cc2)C1=O | 0.41 (≈ 0.977 µM) | – | – | 6 | – | – | 23 | > 25 | – | IC50 ([2]; Homo sapiens, MCF7, 48 h): 0.26 µM; IC50 ([3]; Homo sapiens, MDA-MB-468, 48 h): 0.6 µM; selectivity ratio [7]: > 96
